Patent EP0490410B1, “TXA2 Receptor and gene encoding the same” (SHIONOGI SEIYAKU KABUSHIKI KAISHA, priority 1990, dated 1992)

Columns and labels:
[1] = target: T1, human TXA2 receptor encoded by placenta cDNA clone HPL (SEQ ID NO: 1), expressed in COS-7 cells (Homo sapiens, UniProt P21731); experiment: Competition for [3H]S-145 binding to membranes of transfected COS-7 cells; conditions: 1.25 nM [^3H]S-145 and various concentrations of ligands
T1 construct: expressed in transfected cells; host or cells: COS-7 cells (CDM8 vector), membranes
T1 sequence (P21731 1-343): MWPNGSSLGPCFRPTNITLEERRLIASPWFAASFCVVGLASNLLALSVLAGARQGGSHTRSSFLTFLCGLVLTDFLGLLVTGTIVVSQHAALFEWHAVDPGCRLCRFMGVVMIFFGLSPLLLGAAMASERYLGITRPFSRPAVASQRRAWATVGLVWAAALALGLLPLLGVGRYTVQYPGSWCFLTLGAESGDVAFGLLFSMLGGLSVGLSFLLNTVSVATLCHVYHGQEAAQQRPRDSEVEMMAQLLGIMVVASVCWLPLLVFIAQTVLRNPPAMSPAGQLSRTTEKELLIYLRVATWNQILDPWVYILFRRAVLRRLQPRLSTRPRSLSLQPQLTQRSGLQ
Method: To establish that HPL encodes the TXA2 receptor, the present inventors subcloned a 2.0 kb fragment of HPL into an eukaryotic expression vector, CDM8 (Seed, B., Nature 329, 840-842 (1987)), and transfected the plasmid into COS-7 cells. […] Specificity of this binding was analysed with several TXA2 analogues as well as various prostanoids.
HPL was digested with BamHI to remove most of the 5'-untranslated region, and its 2.0 kb fragment was inserted between the HindIII-XbaI site of eukaryotic expression vector CDM8 (Seed, B., Nature […], 840-842 (1987)). A modified DEAE-dextran method (Ausbel, F. M. et al, Current Protocols in Molecular Biology. 9.2.5 (Wiley, New York, 1989)) was used for the transfection of COS-7 cells. At 60 h after the transfection, cells were collected and membranes were prepared by homogenizing the cells according to the method of Ausbel, F. M. et al., as described above in the presence of 1 mM benzamidine and 0.3 mM PMSF.

[2] = test system: human TXA2 receptor encoded by HPL (SEQ ID NO: 1), expressed in Xenopus oocytes; experiment: Electrophysiological response (two-micropipette voltage clamp) of Xenopus oocytes injected with in vitro transcribed mRNA of HPL; assay type: cell-based; conditions: for response evoked (inward current): ligand added to the bath at 1 µM, oocytes 48 hours after mRNA injection
Method: The TXA2 receptor stimulation results in PI turnover and Ca^2+ mobilization. The present inventors, therefore, expressed the clone in Xenopus oocyte where agonist stimulation linked to PI turnover opens endogenous Ca^2+-dependent Cl^- channel. […] The mRNA synthesized in vitro from the 2.0 kb BamHI subclone of HPL was injected into Xenopus oocytes and electrophysiological responses were measured after 48 hours. A TXA2 agonist, STA2, and other PGs dissolved in ethanol at 100 µM were added to the bath at 1 µM concentration, and responses of oocytes were recorded by the two-micropipette voltage clamp method as described in Masu, Y. et al., Nature 329, 836-838 (1987).

Row | Compound | competition for the [^3H]S-145 binding [1] | response evoked (inward current) [2] | concentration as low as which the response was seen ([2]; oocytes injected with mRNA of HPL) [nM]
1 | CC1(C)[C@H]2C[C@H](NC(=O)[C@H](O)C3CCCC3)[C@@H](C/C=C\CCCC(=O)O)[C@@H]1C2 [ONO-3708] | competed for the [^3H]S-145 binding |  | 
2 | CCCCC[C@H](O)/C=C/[C@H]1[C@H](O)CC(=O)[C@@H]1CCCCCCC(=O)O [PGE1] |  | did not evoke response | 
3 | PGD2 |  | did not evoke response | 
4 | CCCCCC(O)C=CC1CC2CC(S2)C1CC=CCCCC(=O)O (stereo not drawn) [STA2] | competed for the [^3H]S-145 binding | evoked a fast inward current of a few hundred nA followed by a slow phase of current of low amplitude | 1
5 | CCCCC[C@H](O)/C=C/[C@H]1[C@H](O)CC(=O)[C@@H]1C/C=C\CCCC(=O)O [E2] |  | did not evoke response | 
6 | CCCCCC(O)C=CC1C(O)CC2OC(=CCCCC(=O)O)CC21 (stereo not drawn) [I2] |  | did not evoke response | 
7 | CCCCC[C@H](O)/C=C/[C@H]1OC(O)C[C@H](O)[C@@H]1C/C=C\CCCC(=O)O (stereo partly drawn) [TXB2] | at least two orders of magnitude less active in the competition | did not evoke response | 

The next lines start with results.

Row | competition for the [^3H]S-145 binding [1] | response evoked (inward current) [2] | Compound | concentration as low as which the response was seen ([2]; oocytes injected with mRNA of HPL) [nM]
8 |  | did not evoke response | CCCCC[C@H](O)/C=C/[C@@H]1[C@@H](C/C=C\CCCC(=O)O)[C@@H](O)C[C@H]1O [PGF2 α] | 
9 | competed for the [^3H]S-145 binding |  | O=C(O)CCCC=CCC1C2CCC(C2)C1NS(=O)(=O)c1ccccc1 (stereo not drawn) [S-145] | 
